Values after ≈ are worked out from the molar mass of the structure shown.
Tests used:
[1] = molecular target: Klebsiella pneumoniae LpxC (Klebsiella pneumoniae subsp. pneumoniae (strain ATCC 700721 / MGH 78578), UniProt A6T4N9); assay: Inhibition Assay against Klebsiella pneumoniae LpxC (LC-MS/MS); type: biochemical; details: 0.2 nM Kpn LpxC, 22° C., 60 minutes
Method: LpxC inhibition assays were performed using liquid chromatography with tandem mass spectrometry. Assays were performed, in duplicate, in opaque, 96-well microplates in a total assay volume of 50 μL. The incubation mixture contained: LpxC (0.2 nM Kpn), 0.8 μM UDP-3-O—[(R)-3-hydroxymyristoyl]-N-acetyl-glucosamine, 40 mM Bis-Tris/HCl buffer (pH 5.9), 5 mM sodium phosphate buffer (NaH2PO4/Na2HPO4, pH 7.0), 1 mM DTT, 0.1% (w/v) fatty-acid free BSA, 10% DMSO (v/v, with or without compound). The reactions were incubated at 22° C. for 60 minutes (with mild shaking), then terminated by the addition of 25 μL 0.25 N HCl. Samples were analyzed using a LC-MS system to measure native LpxC substrate and reaction product. IC50 analysis was done using GeneData Screener and a four parameter variable slope normalized to controls. Test compounds were prepared as 8-point dose-response curves (factor dilution 2) in triplicate, starting at 1 μM final concentration. Each assay plate included 6 wells used for the Z′ factor calculation, 3 as a positive control for the assay and 3 as a negative control. The robustness was calculated as the median Z′ factor for 5 plates.

[2] = tested on: E. coli ATCC 25922; assay: MIC by broth microdilution, E. coli ATCC 25922, no FBS; type: cell-based; details: Escherichia coli, ATCC25922, 35° C., 18-24 h
Method: (§1) Minimal inhibitory concentrations (MIC) were determined by the broth microdilution method in accordance with the Clinical and Laboratory Standards Institute (CLSI) guidelines. In brief, organism suspensions were adjusted to a 0.5 McFarland standard to yield a final inoculum between 3×10^5 and 7×10^5 colony-forming units (CFU)/mL. Drug dilutions and inocula were made in sterile, cation adjusted Mueller-Hinton Broth (Beckton Dickinson). An inoculum volume of 100 μL was added to wells containing 100 μL of broth with 2-fold serial dilutions of drug. All inoculated microdilution trays were incubated in ambient air at 35° C. for 18-24 h. […] Performance of the assay was monitored by the use of laboratory quality-control strains and levofloxacin, a compound with a defined MIC spectrum, in accordance with CLSI guidelines.

[3] = tested on: E. coli BW25113; assay: MIC by broth microdilution, E. coli BW25113, no FBS; type: cell-based; details: Escherichia coli, 35° C., 18-24 h
Method: as §1

[4] = tested on: E. coli imp mutant; assay: MIC by broth microdilution, E. coli imp mutant; type: cell-based; details: Escherichia coli, read-out: MIC E. coli imp mutant
Method: as §1

[5] = tested on: P. aeruginosa 209; assay: MIC by broth microdilution, P. aeruginosa 209; type: cell-based; details: Pseudomonas aeruginosa, 35° C., 18-24 h
Method: as §1

[6] = tested on: E. coli delta to IC mutant; assay: MIC by broth microdilution, E. coli delta tolC mutant; type: cell-based; details: Escherichia coli, read-out: MIC E. coli delta to IC mutant
Method: as §1

[7] = tested on: P. aeruginosa 210 delta mexAB-OprM; assay: MIC by broth microdilution, P. aeruginosa 210 delta mexAB-OprM; type: cell-based; details: Pseudomonas aeruginosa, read-out: MIC P. aeruginosa 210 delta mexAB-OprM
Method: as §1

[8] = tested on: S. aureus ATCC 29213; assay: MIC by broth microdilution, S. aureus ATCC 29213; type: cell-based; details: Staphylococcus aureus, ATCC29213; 35° C., 18-24 h
Method: as §1

Row | SMILES | IC50 [1] | MIC [2] | MIC [3] | MIC [4] | MIC [5] | MIC [6] | MIC [7] | MIC [8]
1 | O=C(c1ccc(C#CC#Cc2ccc(NCc3nc[nH]c(=O)c3O)cc2)cc1)N1CCOCC1 [Compound 97] | 10 to 100 nM | 1 to 8 mg/L (≈ 2.2 to 17.6 µM) | < 1 mg/L | < 1 mg/L | > 32 mg/L | < 1 mg/L | > 32 mg/L | > 32 mg/L
2 | O=c1[nH]cnc(CNc2ccc(C#Cc3ccc(CN4CCOCC4)cc3)cc2)c1O [Compound 98] | 10 to 100 nM | 1 to 8 mg/L (≈ 2.4 to 19.2 µM) | < 1 mg/L | 1 to 8 mg/L (≈ 2.4 to 19.2 µM) | > 32 mg/L | < 1 mg/L | > 32 mg/L | > 32 mg/L
3 | O=C(c1ccc(C#CC#Cc2ccc(NCc3nc[nH]c(=O)c3O)cc2)cc1)N1CCC[C@H]1CO [Compound 99] |  | > 32 mg/L | 1 to 8 mg/L (≈ 2.13 to 17.1 µM) | < 1 mg/L | > 32 mg/L | < 1 mg/L | > 32 mg/L | > 32 mg/L
4 | CN(C)C1CCN(C(=O)c2ccc(C#CC#Cc3ccc(NCc4nc[nH]c(=O)c4O)cc3)cc2)C1 (stereo not drawn) [Compound 100] |  | 1 to 8 mg/L (≈ 2.08 to 16.6 µM) | 1 to 8 mg/L (≈ 2.08 to 16.6 µM) | < 1 mg/L | > 32 mg/L | < 1 mg/L | > 32 mg/L | > 32 mg/L
5 | O=C(O)c1ccc(C#Cc2ccc(NCc3nc[nH]c(=O)c3O)cc2)cc1 [Compound 101] |  | > 32 mg/L | > 32 mg/L | > 32 mg/L | > 32 mg/L | 1 to 8 mg/L (≈ 2.77 to 22.1 µM) | > 32 mg/L | > 32 mg/L
6 | O=c1[nH]cnc(CS(=O)(=O)c2ccc(C#Cc3ccc(CN4CCOCC4)cc3)cc2)c1O [Compound 102] |  | 8 to 32 mg/L (≈ 17.2 to 68.7 µM) | 8 to 32 mg/L (≈ 17.2 to 68.7 µM) | 8 to 32 mg/L (≈ 17.2 to 68.7 µM) | > 32 mg/L | 8 to 32 mg/L (≈ 17.2 to 68.7 µM) | 8 to 32 mg/L (≈ 17.2 to 68.7 µM) | > 32 mg/L
7 | O=c1[nH]cnc(CNc2ccc(C#Cc3ccc(-c4nnn[nH]4)cc3)cc2)c1O [Compound 103] |  | > 32 mg/L | > 32 mg/L | > 32 mg/L | > 32 mg/L | 1 to 8 mg/L (≈ 2.59 to 20.8 µM) | > 32 mg/L | > 32 mg/L

— patent US10875832B2, “Substituted pyrimidines for treating bacterial infections” (FORGE THERAPEUTICS, INC., priority 2015, dated 2020)
